# Measurements as given in patent publication US20240368122A1, “JAK2 INHIBITORS AND METHODS OF USE THEREOF” (RELAY THERAPEUTICS, INC., priority 2021, published 2024).
# Like-named read-outs stand apart in the source and are kept apart here.
# Columns and labels:
# [1] = biological target: T1, JAK2 JH2 WT (V536-D812) [W659A, W777A, F794H solubilizing mutations] (Homo sapiens, UniProt O60674, F794H/W659A/W777A); assay: Surface Plasmon Resonance (SPR) binding assay, JAK2 JH2 domain
# T1 construct: **JAK2 JH2 WT (V536-D812) [W659A, W777A, F794H solubilizing mutations]; C-thrombin-avi-His6; thrombin cleavage site (C); His6 (C); purchased Biortus
# T1 sequence (O60674 536-812 W659A/W777A/F794H): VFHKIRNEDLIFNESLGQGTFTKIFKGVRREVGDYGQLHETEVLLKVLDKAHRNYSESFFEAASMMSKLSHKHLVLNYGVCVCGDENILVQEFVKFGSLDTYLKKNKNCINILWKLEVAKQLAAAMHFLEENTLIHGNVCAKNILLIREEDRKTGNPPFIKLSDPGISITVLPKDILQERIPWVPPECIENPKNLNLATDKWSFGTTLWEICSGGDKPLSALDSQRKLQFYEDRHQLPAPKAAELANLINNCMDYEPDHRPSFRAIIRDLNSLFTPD
# Procedure: Selected compounds of the present disclosure were tested in a Surface Plasmon Resonance (SPR) Assay to measure their binding kinetics and affinity for proteins of interest.
# Prepare buffer: 50 mM HEPES pH 7.5, 150 mM NaCl, 0.05% (v/v) Tween, and 10% (v/v) glycerol were combined and pH was adjusted to 7.5, then filtered. 5 mM DTT, was added, and buffer without DMSO was reserved for compound resuspension. 2% (v/v) DMSO was added for assay buffer, and separately 1% DMSO was used to make buffer for resuspending compounds.
# Prepare compounds: Using a Bravo liquid handler, 99 μL of 1% (v/v) DMSO assay buffer was added to 1 μL compounds in DMSO.
# Run 8K Method: Biotin CAPture (CAP) chip surface was regenerated prior to run by: Inserting CAP chip into Biacore 8K, prime machine with assay buffer with 2% (v/v) DMSO; Setting instrument temperature to 20° C.; Conditioning surface with NaOH/GdnHCl reagents from CAP chip kit (60 seconds, 10 μL/min); and Capturing oligo-Streptavidin (SA) reagent from CAP kit (600 seconds, 1 μL/min), expected capture ˜2500 RU. JAK2 JH1 or JH2 protein was immobilized by preparing a sample of 0.5 uM JH1 or 0.4 uM JH2 protein diluted in assay buffer without DMSO and supplemented with 10 uM of a selected compound of the invention as a stabilizer (370 seconds, 5 uL/min), expected capture ˜1000 RU. Remaining biotin sites on SA were blocked with 1 uM biotin (30 seconds, 20 uL/min), then equilibrated for 1800 seconds at 100 uL/min. Compounds being assayed were run in single cycle kinetics: 4 doses with a top concentration of 5 uM (JH1) or 500 nM (JH2), dilution factor of 3, at 20° C., for a contact time of 60 seconds, and a dissociation time of 300 seconds (JH1) or 1200 seconds (JH2), at a flow rate of 30 uL/min. The surface was completely regenerated after each compound is run, and JH1 or JH2 protein was immobilized fresh prior to each new compound. Data were fitted kinetically with 1:1 binding model using Biacore Insight Evaluation Software.
# [2] = test system: TF1 JAK2 V617F STAT5 reporter; assay: Cellular TF1 STAT5 assay (luciferase reporter), JAK2 V617F; format: cell-based; conditions: read-out: Cell PD TF1 V617F STAT5 (IC50)
# How it was run: (§1)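 Inhibition of JAK2 V617F-mediated STAT3/STAT5 signalling is measured by reporter luminescence in TF1 erythroleukemia cells treated overnight (18-20 h) with a 10-point compound series; DMSO serves as vehicle.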
# [3] = test system: TF1 JAK2 V617F STAT3 reporter; assay: Cellular TF1 STAT3 assay (luciferase reporter), JAK2 V617F; format: cell-based; conditions: read-out: Cell PD-TF1 JAK2 V617F STAT3 (IC50)
# How it was run: as §1
# [4] = Homo sapiens, TF-1, TF1 cells, JAK2 V617F
SMILES,Kd [1] [nM],"IC50 [2, 4] [nM]","IC50 [3, 4] [nM]","Kd ([1]; SPR, JAK2 JH2 domain) [nM]",IC50 ([2]; TF1 JAK2 V617F) [nM],IC50 ([3]; TF1 JAK2 V617F) [nM]
CNC(=O)c1nnc(NC(=O)C2CC2)cc1Nc1ccc(C)c(-c2cnc(C(=O)N(C)Cc3ccn(C)n3)c(F)c2)c1OC [Compound 47],,,,0.01 to 10,500 to 5000,500 to 5000
CNC(=O)c1nnc(NC(=O)C2CC2)cc1Nc1cccc(-c2cnn(C3CN(Cc4csnn4)C3)c2)c1OC [Compound 173],,,,0.01 to 10,50 to 500,50 to 500
CNC(=O)c1nnc(NC(=O)C2CC2)cc1Nc1cccc(-c2ccc(C(=O)N(C)Cc3scnc3C)nc2)c1OC [Compound 210],0.01 to 10,500 to 5000,5000 to 100000,,,
"CNC(=O)c1nnc(NC(=O)C2CC2)cc1Nc1cccc(-c2ccc(C(=O)N(C)CC3=NO[C@@H]4CCCC[C@H]34)nc2)c1OC (single isomer, unassigned) [Compound 193]",,,,0.01 to 10,50 to 500,50 to 500
CNC(=O)c1nnc(NC(=O)C2CC2)cc1Nc1cccc(-c2ccc(C(=O)N(C)Cc3cn(C)nc3C(F)(F)F)nc2)c1OC [Compound 51],,,,0.01 to 10,50 to 500,50 to 500
CNC(=O)c1nnc(NC(=O)C2CC2)cc1Nc1ccc(C)c(-c2ccc(C(=O)N(C)Cc3cn(C)nc3C)nc2)c1OC [Compound 164],,,,0.01 to 10,50 to 500,50 to 500
"CNC(=O)c1nnc(NC(=O)C2CC2)cc1Nc1ccc(C)c(-c2cnc(C(=O)N(C)C[C@H]3CCN(C)C3=O)c(F)c2)c1OC (single isomer, unassigned) [Compound 117]",,,,0.01 to 10,5000 to 100000,5000 to 100000
CNC(=O)c1nnc(NC(=O)C2CC2)cc1Nc1cccc(-c2cnc(C(=O)N(CCF)Cc3cccn(C)c3=O)c(F)c2)c1OC [Compound 22],,,,0.01 to 10,500 to 5000,500 to 5000
"CNC(=O)c1nnc(NC(=O)C2CC2)cc1Nc1cccc(-c2ccc(C(=O)N(C)[C@H](C)c3cnn(C)c3)nc2)c1OC (single isomer, unassigned) [Compound 115]",,,,10 to 50,5000 to 100000,5000 to 100000
CNC(=O)c1nnc(NC(=O)C2CC2)cc1Nc1cccc(-c2ccc(C(=O)N(C)Cc3ccc(OC)cc3)nc2)c1OC [Compound 94],,,,0.01 to 10,500 to 5000,500 to 5000
CNC(=O)c1nnc(NC(=O)C2CC2)cc1Nc1cccc(-c2cnc(C(=O)N(C)Cc3cc(C#N)ccn3)cc2C2CC2)c1OC [Compound 153],,,,0.01 to 10,50 to 500,50 to 500
CNC(=O)c1nnc(NC(=O)C2CC2)cc1Nc1cccc(-c2cnn(C3CN(Cc4ncc(C)s4)C3)c2)c1OC [Compound 123],,,,0.01 to 10,500 to 5000,500 to 5000
CNC(=O)c1nnc(NC(=O)C2CC2)cc1Nc1cccc(-c2ccc(C(=O)N(C)Cc3cc(Cl)ccc3OC)nc2)c1OC [Compound 82],,,,0.01 to 10,500 to 5000,500 to 5000
"CNC(=O)c1nnc(NC(=O)C2CC2)cc1Nc1cccc(-c2ccc(C(=O)N(C)CC3=NO[C@H]4CCCC[C@@H]34)nc2)c1OC (single isomer, unassigned) [Compound 194]",,,,0.01 to 10,500 to 5000,500 to 5000
"CNC(=O)c1nnc(NC(=O)C2CC2)cc1Nc1cccc(-c2cnn(C3CN([C@@H](C)c4ccccn4)C3)c2)c1OC (single isomer, unassigned) [Compound 162]",,,,0.01 to 10,500 to 5000,50 to 500

# Further lines, results first:
Kd [1] [nM],"IC50 [2, 4] [nM]","IC50 [3, 4] [nM]","Kd ([1]; SPR, JAK2 JH2 domain) [nM]",IC50 ([2]; TF1 JAK2 V617F) [nM],IC50 ([3]; TF1 JAK2 V617F) [nM],SMILES
50 to 500,500 to 5000,5000 to 100000,,,,CCOc1cccc(CN2CC(c3ccc(-c4cccc(Nc5cc(NC(=O)C6CC6)nnc5C(=O)NC)c4OC)cn3)C2)n1 [Compound 389]
0.01 to 10,50 to 500,50 to 500,,,,CNC(=O)c1nnc(NC(=O)C2CC2)cc1Nc1cccc(-c2cnn(C3CN(Cc4cccc5ncnn45)C3)c2)c1OC [Compound 248]
0.01 to 10,50 to 500,50 to 500,,,,CNC(=O)c1nnc(NC(=O)C2CC2)cc1Nc1cccc(-c2cnn(C3CN(Cc4cccc5ccnn45)C3)c2)c1OC [Compound 287]
10 to 50,5000 to 100000,5000 to 100000,,,,CNC(=O)c1nnc(NC(=O)C2CC2)cc1Nc1ccc(C)c(-c2ccc(C3CN(Cc4ccccn4)C3)nc2)c1OC [Compound 322]
50 to 500,5000 to 100000,5000 to 100000,,,,"CNC(=O)c1nnc(NC(=O)C2CC2)cc1Nc1cccc(C(=O)N[C@H](C)C2CN(Cc3ccccn3)C2)c1OC (single isomer, unassigned) [Compound 246]"
0.01 to 10,10 to 50,50 to 500,,,,CNC(=O)c1nnc(NC(=O)C2CC2)cc1Nc1cccc(-c2cnn(C3CN(Cc4cccc(C(=O)N5CCC(F)(F)C5)n4)C3)c2)c1OC [Compound 357]
0.01 to 10,50 to 500,50 to 500,,,,CNC(=O)c1nnc(NC(=O)C2CC2)cc1Nc1cccc(-c2cnn(C3CN(Cc4cccc([N+](=O)[O-])n4)C3)c2)c1OC [Compound 294]
0.01 to 10,50 to 500,50 to 500,,,,CNC(=O)c1nnc(NC(=O)C2CC2)cc1Nc1ccc(C)c(-c2ccc(C(=O)N(C)Cc3cc(S(C)(=O)=O)ccn3)nc2)c1OC [Compound 347]
50 to 500,5000 to 100000,5000 to 100000,,,,CNC(=O)c1nnc(NC(=O)C2CC2)cc1Nc1cccc(-c2cn(C3CN(C(C)C)C3)nc2CO)c1OC [Compound 335]
0.01 to 10,50 to 500,50 to 500,,,,CNC(=O)c1nnc(NC(=O)C2CC2)cc1Nc1cccc(-c2cnn(C3CN(Cc4cccn(C)c4=O)C3)c2)c1OC [Compound 267]
0.01 to 10,5000 to 100000,5000 to 100000,,,,CNC(=O)c1nnc(NC(=O)C2CC2)cc1Nc1cccc(-c2cnc(C3CN(Cc4ccccn4)C3)nc2)c1OC [Compound 325]
0.01 to 10,500 to 5000,500 to 5000,,,,CNC(=O)c1nnc(NC(=O)C2CC2)cc1Nc1cccc(-c2cnn(C3CN(C(=O)c4ccccn4)C3)c2)c1OC [Compound 229]
0.01 to 10,5000 to 100000,5000 to 100000,,,,CNC(=O)c1nnc(NC(=O)C2CC2)cc1Nc1cccc(-c2cnc(C3CN(Cc4cccc5ncnn45)C3)nc2)c1OC [Compound 327]
